Among the data in patent US20130029973A1, “TETRAHYDROBENZOTHIOPHENE COMPOUND” (ASTELLAS PHARMA INC., priority 2010, published 2013) are melting point, inhibition and inhibition in vivo values, retold here.

The target in data set [1] is T1, rat NPT-IIb (Rattus norvegicus, UniProt Q9JJ09).
T1 construct: rat NPT-IIb ORF was cloned into p3×FLAG-CMV-10; 3xFLAG (N); expressed in transfected cells
T1 sequence (Q9JJ09 1-695): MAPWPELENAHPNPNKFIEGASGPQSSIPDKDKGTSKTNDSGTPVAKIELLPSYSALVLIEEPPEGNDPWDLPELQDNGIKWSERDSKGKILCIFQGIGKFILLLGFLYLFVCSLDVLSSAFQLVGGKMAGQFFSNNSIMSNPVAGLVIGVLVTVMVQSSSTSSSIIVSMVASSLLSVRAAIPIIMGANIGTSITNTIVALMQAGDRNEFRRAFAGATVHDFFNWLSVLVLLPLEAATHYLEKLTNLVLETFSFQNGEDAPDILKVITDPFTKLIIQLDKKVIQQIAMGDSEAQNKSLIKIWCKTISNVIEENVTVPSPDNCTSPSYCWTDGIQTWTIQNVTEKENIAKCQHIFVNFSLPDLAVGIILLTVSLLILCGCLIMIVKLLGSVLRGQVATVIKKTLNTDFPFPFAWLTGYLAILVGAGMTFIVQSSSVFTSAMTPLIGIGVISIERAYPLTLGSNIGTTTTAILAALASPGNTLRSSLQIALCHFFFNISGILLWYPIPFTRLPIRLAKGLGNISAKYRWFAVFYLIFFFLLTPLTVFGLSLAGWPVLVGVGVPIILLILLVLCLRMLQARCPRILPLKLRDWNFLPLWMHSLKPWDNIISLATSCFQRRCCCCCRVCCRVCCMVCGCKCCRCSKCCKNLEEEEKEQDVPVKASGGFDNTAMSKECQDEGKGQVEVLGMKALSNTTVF
Nature of the data set: 33P phosphate uptake inhibiting action of rat NPT-IIb expressing cell. Type of data set: cell-based. Particulars: HEK293; evaluation concentration 1 μM; 33P uptake in rat NPT-IIb stably expressing 293 cells; read-out: Rat NPT-IIb inhibitory rate (%). The source says: Test Example 1: ^33P Phosphate Uptake Inhibiting Action of Rat NPT-IIb Expressing Cell
Preparation of Rat NPT-IIb Expressing Cell
Using rat small intestine cDNA library as a template, rat NPT-IIb ORF was cloned into p3×FLAG-CMV-10 by PCR according to a standard method. Then, the cloned rat NPT-IIb expressing plasmid was transfected into 293 cells, and G418 was used to obtain a rat NPT-11b-stably expressing cell line.
Evaluation System on Inhibition of Phosphate Uptake into Rat NPT-IIb Expressing Cell
The rat NPT-Hb expressing cells were seeded into a 96-well plate and incubated overnight. The medium was taken out and washed with buffer A (137 mM N-methyl-D-glucamine, 5.4 mM KCl, 2.8 mM CaCl2, 1.2 mM MgCl2, 10 mM HEPES (adjusted to pH 7.4 with HCl)), and then buffer B (137 mM NaCl, 5.4 mM KCl, 2.8 mM CaCl2, 1.2 mM MgCl2, 0.1 mM KH2PO4, 10 mM HEPES (adjusted to pH 7.4 with KOH)) was added thereto. Then, a compound having 10-fold higher concentration relative to the evaluation concentration was prepared by dilution with the buffer B and added thereto, followed by incubation in CO2 incubator. Buffer B supplemented 50 μCi/mL ^33P was added thereto, followed by further incubation in a CO2 incubator. After the reaction, the buffer was taken out and the cells were washed with buffer C (137 mM NaCl, 10 mM Tris/HCl pH 7.2). Then, Microscint-20 was added thereto and ^33P uptake was measured by using TopCount. The inhibitory rate was determined according to the following equation.
Inhibitory rate (%)=(1−(^33P uptake of drug-treated well)/(^33P uptake of DMSO-added well))×100
For several compounds of the formula (I), rat NPT-11b inhibitory activity at a pharmacological evaluation concentration of 1 μM is shown in Table 1. Here, Ex represents Example No. as denoted below (this shall apply hereinafter).

Data set [2] deals with orally 32P phosphate loaded rats. Nature of the data set: Blood radioactivity increase inhibiting action in orally 32P phosphate loaded rats (phosphate absorption inhibitory action). Type of data set: in vivo. Particulars: Rattus norvegicus, 0.5 h; 3 mg/kg oral, male Wistar rats; from serum radioactivity AUC0-30min vs control group; read-out: Phosphate absorption inhibitory rate (%). As to the method:
Blood Radioactivity Increase Inhibiting Action in Orally ^32P Phosphate Loaded Rats (Phosphate Absorption Inhibitory Action)
Male Wistar rats (6 to 7 weeks old) were fasted for 24 hours and used as experimental animals. The compound was dissolved or suspended with a solvent, and was used at a concentration of 0.6 mg/mL. The compound-administered animals were forcibly orally administered with the compound at a dose of 3 mg/kg. Control-group animals were administered a solvent containing no compound at a dose of 5 mL/kg. After 5 minutes from administration of the compound or from administration of the solvent, a ^32P-containing phosphate solution (8.3 mM NaH2PO4) was orally administered thereto at a dose of 7.2 mL/kg. After 15 minutes and 30 minutes, the blood was taken from the orbital venous plexus and the serum was collected. Radioactivity in 0.1 mL of the serum was measured by a liquid scintillation counter. AUC0-30min calculated from the measured counts was considered as a phosphate absorption amount. The phosphate absorption inhibitory rate was determined from the AUC0-30min value according to the following equation.
Phosphate absorption inhibitory rate (%)=(1−Phosphate absorption count of compound-administered group/Phosphate absorption count of control group)×100
As a result, it was confirmed that several compounds of the formula (I) have an intestinal phosphate absorption inhibitory action. With the several compounds of the formula (I), the phosphate absorption inhibitory rates at a pharmacological evaluation dose of 3 mg/kg are shown in Table 2.

Compound `CCN([C@H]1CC[C@H](C(=O)O)CC1)S(=O)(=O)c1cccc(C(=O)Nc2sc3c(c2C(=O)Nc2ccc(CCCc4ccc(C(=O)O)cc4)cc2)CCCC3)c1` [Example 23, 4-{3-[4-({[2-({3-[(trans-4-carboxycyclohexyl)(ethyl)sulfamoyl]benzoyl}amino)-4,5,6,7-tetrahydro-1-benzothiophen-3-yl]carbonyl}amino)phenyl]propyl}benzoic acid] came in with a melting point of 178.5 °C. For the same compound, the inhibition at 1 µM in data set [1] worked out at 86%. Moreover, in data set [2], the inhibition in vivo at 3 mg/kg was ≥ 60%.

With `O=C(O)CCCCN(C1CC1)S(=O)(=O)c1cccc(C(=O)Nc2sc3c(c2C(=O)Nc2ccc(CCc4ccc(C(=O)O)cc4)cc2)CCCC3)c1` [Example 34, 4-{2-[4-({[2-({3-[(4-carboxybutyl)(cyclopropyl)sulfamoyl]benzoyl}amino)-4,5,6,7-tetrahydro-1-benzothiophen-3-yl]carbonyl}amino)phenyl]ethyl}benzoic acid], the melting point was determined as 220.1 °C. Also, in data set [1], the inhibition at 1 µM was found to be 80%. Further, the inhibition in vivo at 3 mg/kg in data set [2] is ≥ 60%.
